Blank lines part the entries; values can stand above or below the molecule they belong to.
Assays:
MytiLec [1] = biological target: T1, MytiLec (Mytilus galloprovincialis, UniProt B3EWR1, T39A); experiment: ITC, single-site model; crystal structure […] Å; type: binding; conditions: 10 mM HEPES pH 7.4, 100 mM NaCl, 298 K; averaged over three sites per monomer (one type of independent site); crystal shows alpha anomer at all six sites of the dimer
T1 construct: full-length from codon-optimised synthetic gene, initial Thr changed to Ala; N-terminal His6 tag cut by thrombin, product begins GSHMATF; E. coli BL21(DE3) RILP; homodimer 34 kDa

MytiLec [2] = biological target: T1, MytiLec; experiment: ITC, single-site model; type: binding; conditions: 10 mM HEPES pH 7.4, 100 mM NaCl, 298 K; averaged over three sites per monomer (one type of independent site)
[3] = biological target: MytiLec(F93DF94S) (Mytilus galloprovincialis)
[4] = biological target: Recombinant MytiLec (Mytilus galloprovincialis); experiment: AUC; sedimentation velocity, 50 mM potassium phosphate pH 7.4, 0.1 M NaCl, 293 K, 50,000 rpm, absorbance at 280 nm, c(s) converted to c(M); wild-type protein

T1 sequence (B3EWR1 39-187 T39A): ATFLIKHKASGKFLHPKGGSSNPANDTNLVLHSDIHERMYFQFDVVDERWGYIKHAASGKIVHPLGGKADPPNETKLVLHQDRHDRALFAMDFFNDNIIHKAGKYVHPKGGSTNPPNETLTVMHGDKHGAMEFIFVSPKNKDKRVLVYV

Kd (MytiLec [1]): 130 µM
Molecule: CC(=O)N[C@H]1C(O)O[C@H](CO)[C@H](O)[C@@H]1O (stereo partly shown) [GalNAc]

Kd (MytiLec [2]): 200 µM
Molecule: OC[C@H]1OC(O)[C@H](O)[C@@H](O)[C@H]1O (stereo partly shown) [galactose]

Molecule: MytiLec(F93DF94S) (natural protein)
haemagglutination activity on rabbit erythrocytes, monomer mutant against the dimer (times less than the dimer) [3]: 10

stoichiometry N [4]: 2
Molecule: Recombinant MytiLec (natural protein)

Reference: article PMC4913266, “Crystal structure of MytiLec, a galactose-binding lectin from the mussel Mytilus galloprovincialis with cytotoxicity against certain cancer cell types” (Scientific Reports, 2016)
